The record followed here is patent US6462184B2, “Compounds, processes and intermediates for synthesis of mixed backbone oligomeric compounds” (ISIS Pharmaceuticals, Inc., priority 1999, dated 2002).

For data set [1], the system named is c-raf mRNA. Put plainly: c-raf mRNA expression in A549 cells. The conditions noted are these: between 50-400 nM range. Format: cell-based, human. The method, then:
Gapmers designed in this study are based on the parent sequence of ATGCATTCTGCCCCCAAGGA (SEQ ID No:9) which is a uniform deoxy phosphorothioate. This sequence is an antisense oligomeric compound targeted to mouse c-raf. c-raf m-RNA expression assay was carried out according to a reported procedure (Monia et al., Nature Medicinek, 1996, 2, 668). Human A549 lung carcinoma cells were obtained from the American Type Tissue Collection. These were grown in Dulbecco's modified Eagle's medium containing 1 g of glucose/liter (DMEM) and FCS (10%) and routinely passaged when 90-95% confluent.
Assay for Oligonucleoside Inhibition of c-raf Protein Synthesis: A549 cells were plated in 6-well plates (Falcon Labware, Lincoln Park, N.J.) and 24-48 hours later (when 80-90% confluent) treated with 1 μM phorbol 12,13-dibutyrate (PDBu) for 18 hours. This procedure removes greater than 75% of immunoreactive c-rafprotein from the cells. Cells were then washed three times with DMEM (3 mL) (to remove PDBu), and DMEM (1 mL) containing DOTMA/DOPE solution (20 μg/mL, LipofectinR, Bethesda Research Laboratories) was added. Oligonucleoside gapmers were then added to the required concentration (for our initial screen, 1 μM) from a 10 μM stock solution, and the two solutions were mixed by swirling of the dish. The cells were incubated at 37° C. for 4 hours, washed once with DMEM+FCS (10%) to remove the DOTMA/DOPE solution, and then additional DMEM (3 mL)+10% FCS was added and the cells were allowed to recover for another 10 hours. Total RNA is prepared 24 hours after the experiment and analyzed for c-raf and G3PDH mRNA levels after normalization to G3PDH mRNA.

Data set [2] relates to ICAM-1. The data set is described as follows: ICAM-1 expression in HUVEC cells (flow cytometry). Format: cell-based, human. The method, then: Targeted oligomeric compounds were prepared and assayed using HUVEC cells to determine their ability to inhibit the expression of ICAM-1. HUVEC cells were washed three times with Opti-MEM (Life Technologies, Inc.) that was prewarmed to 37° C. Oligomeric compounds were premixed with Lipofectin (10 μg/mL, Life Technologies, Inc.) in Opti-MEM, serially diluted to the desired concentrations, and applied to washed cells. Basal and untreated (no oligomeric compounds added) control cells were also treated with Lipofectin. Cells were incubated for 4 hours at 37° C., at which time the medium was removed and replaced with standard growth medium with or without TNF-a ([…], R&D Systems). Incubation at 37° C. was continued for different times as indicated below.
A fluorescence-activated cell sorter was used to quantitate ICAM-1 protein expression. The cells were removed from the plate surface by brief trypsinization with trypsin (0.25%) in PBS. Trypsin activity was quenched with a solution of bovine serum albumin (2%) and sodium azide (0.2%) in PBS (+Mg/Ca). […]
Expression of cell surface ICAM-1 was determined by flow cytometry using a Becton Dickinson FACScan. The percentage of ICAM-1 expression in the control was calculated as follows: [(oligomeric compound-treated ICAM-1 value)−(basal ICAM-1 value)/(non-treated ICAM-1 value)−(basal ICAM-1 value))].
A general note: A flow cytometer gives signals particle by particle.

[PN] = dimethylaminoethyl (DMAE) phosphoramidate internucleoside linkage; e = 2'-O-(2-methoxyethyl) (MOE); d = 2'-deoxy (DNA)

“A*T*G* C*A*T*S TSCSTS GSCSCS CSCSC* A*A*G* G*A* (antisense ATGCATTCTGCCCCCAAGGA; 2'-MOE gapmer with mixed PO/PS backbone, marks not given here, further chemistry not given here) [SEQ ID No 9, 2'-MOE gapmer with PO-PS-PO mixed backbone, 20-mer, antisense to c-raf]”: the “c-raf mRNA expression inhibition” value in data set [1] was “dose dependent manner”.
With “T*NT*NT*S GSASCS ASCSGS GSCSAS CSCSAS T*ST*NT*N T* (antisense TTTGACACGGCACCATTTT; sugars from the 5' end e3 d12 e4, linkages [PN]2 s14 [PN]2 (s phosphorothioate, o phosphodiester), methylation of C not given here) [SEQ ID No 4, 2'-MOE gapmer with PN-PS-PN mixed backbone, 19-mer]”, in data set [1], the “c-raf mRNA expression inhibition” value is reported as “dose dependent manner”.
Same read-out and setting: the value for “A*NT*NG* C*A*T*S TSCSTS GSCSCS CSCSC* A*A*G* G*A* (antisense ATGCATTCTGCCCCCAAGGA; sugars from the 5' end e6 d8 e6, linkages [PN]2 o3 s9 o5 (s phosphorothioate, o phosphodiester), methylation of C not given here) [SEQ ID No 10, 2'-MOE gapmer with PN-PO-PS-PO mixed backbone, 20-mer]” was “dose dependent manner”.
As to “A*NT*NG* C*A*T*S TSCSTS GSCSCS CSCSC* A*A*G*N G*NA* (antisense ATGCATTCTGCCCCCAAGGA; 2'-MOE gapmer, mixed PN/PO/PS backbone, chemistry not fully specified) [SEQ ID No 11, 2'-MOE gapmer with PN-PO-PS-PO-PN mixed backbone, 20-mer]”, in data set [2] (HUVEC cells (printed HWEC), compound synthesized by amidite chemistry and same compound by H-phosphonate chemistry), the “controlling ICAM-1 expression” value is on record as “efficacious”. In addition, the “inhibiting ICAM-1 expression” value in data set [2] (between 3 and 100 nM range, both compounds synthesized from different chemistries) is “display dose response”.
